Here are results for eleven molecules from patent publication US20230278984A1 (Global Blood Therapeutics, Inc., priority 2020, published 2023).

The target of the assay is T1, Human pyruvate kinase R (PKR) (Homo sapiens, UniProt P30613).
T1 construct: Human pyruvate kinase R (PKR), residues 14-574; 6x-His (N, cleaved yes); 8x-Arg (N, cleaved yes); SUMO (N, cleaved yes); host or cells: E. coli
The assay is described as follows: Biochemical assay for activation of pyruvate kinase R (Kinase-Glo luminescence measurement of ATP generation). As to conditions: for AC50: PKR biochemical assay, 0.1 nM PKR, 0.3 mM ADP, 2 mM FBP, 0.1 mM PEP; for Emax: maximal activation level relative to the activation level achieved by the literature compound AG-348 @ 10 μM. The protocol: Human pyruvate kinase R (PKR), residues 14-574, and human pyruvate kinase M2, residues 1-531, were cloned into expression plasmids and obtained from ATUM Bio (Newark, Calif.). Proteins were translated as fusions with 6×-His, 8×-Arg, and SUMO at the N-terminus. A third construct of human PKR was truncated, residues 50-574, and similarly cloned for use in crystallography experiments. All proteins were cloned, expressed in E. coli, and purified using similar protocols. Cells were grown at 30° C. in Luria-Bertani broth supplemented with 0.4% glucose to OD600=0.8 and induced with 0.4 mM IPTG at 16° C. for 18 hours. Cells were harvested by centrifugation, resuspended in 50 mM potassium phosphate pH 8.0, 500 mM NaCl, 25 mM imidazole pH 8.0, and 3 mM (3-mercaptoethanol. Cells were lysed using a LM20 microfluidizer from Microfluidics (Westwood, Mass.). The crude lysate was immediately supplemented with 0.2 mM phenylmethylsulfonyl fluoride (PMSF) and centrifuged at 20,000 g for 20 minutes. The soluble fraction was subsequently incubated with 2 mL Ni-NTA (GE Healthcare) per 1,000 ODs for 1 hour at 4° C. Following incubation with the Ni-NTA resin, lysate was removed by pelleting resin at 2,500 g for 3 minutes and washed 3 times with 9 bed volumes of 50 mM potassium phosphate pH 8.0, 500 mM NaCl, 25 mM imidazole, and 3 mM 3-mercaptoethanol. Following the batch wash Ni-NTA resin was loaded onto a gravity column and His-tagged protein was eluted with 6 bed volumes of 10 mM Tris/HCl pH 8.0, 200 mM NaCl, 500 mM imidazole, and 3 mM (3-mercaptoethanol. Eluted protein was dialyzed overnight against 10 mM Tris/HCl pH 8.0, 200 mM NaCl, and 1 mM DTT and the 6×-His-8×-Arg-SUMO-tag was cleaved using a 20:1 molar ratio of protein:3C protease. The protein was purified by anion exchange chromatography on a HiTrapQ or MonoQ 10/100 GL column (GE Healthcare) via a linear NaCl gradient and twice by size exclusion chromatography using a Superdex S200 26/60 column (GE Healthcare) run in 10 mM Tris/HCl pH 8.0, 200 mM NaCl, 10 mM MgCl2, 1 mM DTT. Proteins were concentrated to −12 mg/mL for crystallization and flash frozen for storage.
Biochemical Assay for Activation of Pyruvate Kinase R
Activation of pyruvate kinase R (PKR) and pyruvate kinase M2 (PKM2) were measured using a luminescence based measurement of ATP generation and the Kinase-Glo luminescent kinase reagent kit.

T1 sequence (P30613 14-574): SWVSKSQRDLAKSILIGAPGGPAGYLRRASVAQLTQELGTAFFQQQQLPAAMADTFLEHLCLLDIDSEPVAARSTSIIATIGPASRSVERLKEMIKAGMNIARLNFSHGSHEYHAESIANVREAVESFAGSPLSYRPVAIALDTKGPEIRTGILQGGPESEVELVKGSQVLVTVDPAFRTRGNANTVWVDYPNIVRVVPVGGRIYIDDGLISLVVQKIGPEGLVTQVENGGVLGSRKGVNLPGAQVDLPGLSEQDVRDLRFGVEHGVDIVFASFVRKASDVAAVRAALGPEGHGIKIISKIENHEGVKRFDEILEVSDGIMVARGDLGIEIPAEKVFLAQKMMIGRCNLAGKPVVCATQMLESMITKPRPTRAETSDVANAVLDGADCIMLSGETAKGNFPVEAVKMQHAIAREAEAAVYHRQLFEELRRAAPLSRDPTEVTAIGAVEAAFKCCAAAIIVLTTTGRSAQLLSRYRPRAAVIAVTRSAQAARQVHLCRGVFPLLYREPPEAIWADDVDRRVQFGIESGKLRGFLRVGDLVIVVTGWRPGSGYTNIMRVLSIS

The AC50 is the midpoint of the concentration-response curve, whichever way the signal moves. Low values mean activity at low concentration, high ones activity only at high concentration. Usually Emax stands for the size of the effect at its maximum, as opposed to the concentration needed. `Cc1nc(CNC(=O)NCc2ncnn2-c2ccc3scnc3c2)n(-c2ccc(Cl)c(F)c2)n1` [Compound 17, 1-{[1-(1,3-benzothiazol-5-yl)-1H-1,2,4-triazol-5-yl]methyl}-3-{[1-(4-chloro-3-fluorophenyl)-3-methyl-1H-1,2,4-triazol-5-yl]methyl}urea] gave a concentration at half-maximal activity (AC50) of 13 nM and an Emax of 82%.

Take `Cc1nc(CNC(=O)NCc2ncnn2-c2cnc3c(F)cccc3c2)n(-c2ccc(Cl)c(F)c2)n1` [Compound 136, 3-{[1-(4-chloro-3-fluorophenyl)-3-methyl-1H-1,2,4-triazol-5-yl]methyl}-1-{[1-(8-fluoroquinolin-3-yl)-1H-1,2,4-triazol-5-yl]methyl}urea]: the AC50 was found to be 47 nM and the maximal response (Emax) amounted to 94%.

`O=C(NCc1nnnn1-c1ccc(F)c(F)c1)NCc1nnnn1-c1ccc(F)c(F)c1` [Compound 56, 1,3-bis({[1-(3,4-difluorophenyl)-1H-1,2,3,4-tetrazol-5-yl]methyl})urea]: the AC50 amounted to 1100 nM and the Emax stood at 106%.

With `O=C(NCc1ncnn1CC1CCOCC1)NCc1ncnn1-c1ccc2cccnc2c1` [Compound 15, 3-({1-[(oxan-4-yl)methyl]-1H-1,2,4-triazol-5-yl}methyl)-1-{[1-(quinolin-7-yl)-1H-1,2,4-triazol-5-yl]methyl}urea], the concentration at half-maximal activity (AC50) was 310 nM and the Emax worked out at 57%.

For the molecule `Cc1nc(CNC(=O)NCc2ncnn2-c2cc(C)c3nccnc3c2)n(-c2ccc(Cl)c(F)c2)n1` [Compound 103, 1-{[1-(4-chloro-3-fluorophenyl)-3-methyl-1H-1,2,4-triazol-5-yl]methyl}-3-{[1-(8-methylquinoxalin-6-yl)-1H-1,2,4-triazol-5-yl]methyl}urea], the AC50 is 110 nM and the Emax was 73%.

`Cc1nc(CNC(=O)NCc2ncnn2-c2ccc(C3CC3)nc2)n(-c2ccc(Cl)c(F)c2)n1` [Compound 131, 1-{[1-(4-chloro-3-fluorophenyl)-3-methyl-1H-1,2,4-triazol-5-yl]methyl}-3-{[1-(6-cyclopropylpyridin-3-yl)-1H-1,2,4-triazol-5-yl]methyl}urea]: the AC50 is 78 nM and the Emax turned out to be 94%.

`O=C(NCc1ncnn1CC1CCOCC1)NCc1ncnn1-c1ccc(Cl)c(F)c1` [Compound 7, 3-{[1-(4-chloro-3-fluorophenyl)-1H-1,2,4-triazol-5-yl]methyl}-1-({1-[(oxan-4-yl)methyl]-1H-1,2,4-triazol-5-yl}methyl)urea] yielded an AC50 of 44 nM and a maximal effect (Emax) of 46%.

`Cc1nc(CNC(=O)NCc2ncnn2-c2ccc(Cl)c(F)c2)n(-c2ccc3cccnc3c2)n1` [Compound 85, 1-{[1-(4-chloro-3-fluorophenyl)-1H-1,2,4-triazol-5-yl]methyl}-3-{[3-methyl-1-(quinolin-7-yl)-1H-1,2,4-triazol-5-yl]methyl}urea]: half-maximal activity (AC50) was put at 36 nM and the Emax is 67%.

In turn, `O=C(NCc1ncnn1-c1ccc(Cl)c(F)c1)N(CCF)Cc1ncnn1-c1ccc(Cl)c(F)c1` [Compound 38, 1,3-bis({[1-(4-chloro-3-fluorophenyl)-1H-1,2,4-triazol-5-yl]methyl})-1-(2-fluoroethyl)urea] gave a concentration at half-maximal activity (AC50) of 55 nM and an Emax of 53%.

Molecule `COc1ccc(-n2ncnc2CNC(=O)NCc2nc(C)nn2-c2ccc(Cl)c(F)c2)nc1` [Compound 130, 1-{[1-(4-chloro-3-fluorophenyl)-3-methyl-1H-1,2,4-triazol-5-yl]methyl}-3-{[1-(5-methoxypyridin-2-yl)-1H-1,2,4-triazol-5-yl]methyl}urea] gave an AC50 of 300 nM and a maximal effect (Emax) of 84%.

As for `Cc1nc(CNC(=O)N(C)Cc2nc(C)nn2-c2ccc(Cl)c(F)c2)n(-c2ccc(Cl)c(F)c2)n1` [Compound 78, 1,3-bis({[1-(4-chloro-3-fluorophenyl)-3-methyl-1H-1,2,4-triazol-5-yl]methyl})-1-methylurea], the half-maximal activity concentration (AC50) is 110 nM and the maximal effect (Emax) was determined as 88%.
